Assays:
[1] = Exudation of active agents from gel specimens to filter paper discs, quantified by UV, MS, GC and/or HPLC after extraction; type: physicochemical; settings: for Active Agent Transferred from Gel to Filters: 37° C., 0.40 psi; for Total Active Agent Exuded from Gel: cumulative
Experimental: Sample filter paper discs were placed in contact with gel specimens of same diameter under constant low pressure (0.40 psi. (2.8 Mpa)) at 37° C. Multiple time-controlled exposures of the filter paper to the gel were preformed in succession to same side of gel. Quantification of active agent transferred to the filter paper discs was determined by UV, MS, GC and or HPLC analysis after extraction of active agent from the filter paper. Exudation rates was expressed as μg/unit time per unit surface area.
This compound was then divided into three aliquots' of approximately 10 grams each and poured into a 2.625″ diameter aluminum petri dish and allowed to cool to create individual gel samle discs. Subsequently, absorbent cellulose filter blotter paper was die cut to enough 2.625″ diameter discs to be employed as a wicking media for repeated exposure in direct contact with the gel compound under specific conditions as follows.
(§1) Exposure Conditions: 37-40 deg. C., Sample filter paper discs in contact with gel specimens of same diameter were stacked in […]. aluminum petri dishes, gel specimen diameter 2.625″×0.125″ thick, filter paper disc diameter 2.625″ with another petri dish and a 1 kg dead weight on top of stack. Pressure calculated at ˜0.407 psi. (2.8 Mpa) constant. Two replicates per test condition. Repeat exposures at 3 hours then repeat three exposures of 18 hours each, changing discs but keeping same gel specimen and same side of each gel specimen in contact with each successive filter paper disc sample.
The filter paper disc specimens aa through kk were then sent to an analytical laboratory for HPLC and GC analysis along with a small sample of each individual raw ingredient so that the HPLC and GC equipment could be calibrated for the protocol being employed by the lab. This calibration allowed for determining the maximum recoverable (measurable) amount of each ingredient that could be measured using these techniques and would later be used to correct the data. The analytical laboratory then detected and measured the amount of each of the added active agents that was flushed out of the filter paper discs using wet chemistry techniques known to those skilled in the art.
The analytical data was interpreted, and the amounts of each ingredient which was exuded into each filter paper blotter disc specimen, and subsequently extracted using wet chemistry, were then entered into a data analysis spreadsheet and adjusted based on the Analytical Recovery Rate to determine actual concentration of each ingredient extracted.

[2] = Total weight of exudate (oil) absorbed by filter paper blotter discs and theoretical amount of each ingredient exuded; type: physicochemical
Experimental: as §1
Data was calculated to determine the total weight of exudate absorbed by each individual sample filter paper blotter disc test specimen. Calculations were then performed based upon the ratios of ingredients in the gel disc formula to determine the theoretical amount of each ingredient that could have been exuded from the oil if the oil contained the same ratio of ingredients as contained in the control oil sample and in the gel.

[3] = Gel Specimen Number 1, 1 h filter exposure, time 0-1 h
[4] = Gel Specimen Number 1, 3 h filter exposure, time 1-4 h
[5] = Gel Specimen Number 1, 18 h filter exposure, time 4-22 h
[6] = Gel Specimen Number 1, 18 h filter exposure, time 22-40 h
[7] = Gel Specimen Number 1, 18 h filter exposure, time 40-58 h
[8] = Gel Specimen Number 1, Time 1 h
[9] = Gel Specimen Number 1, Time 4 h
[10] = Gel Specimen Number 1, Time 22 h
[11] = Gel Specimen Number 1, Time 40 h
[12] = Gel Specimen Number 1, Time 58 h
[13] = Gel Specimen Number 2, 1 h filter exposure, time 0-1 h
[14] = Gel Specimen Number 2, 3 h filter exposure, time 1-4 h
[15] = Gel Specimen Number 2, 18 h filter exposure, time 4-22 h
[16] = Gel Specimen Number 2, 18 h filter exposure, time 22-40 h
[17] = Gel Specimen Number 2, 18 h filter exposure, time 40-58 h
[18] = Gel Specimen Number 2, Time 1 h
[19] = Gel Specimen Number 2, Time 4 h
[20] = Gel Specimen Number 2, Time 22 h
[21] = Gel Specimen Number 2, Time 40 h
[22] = Gel Specimen Number 2, Time 58 h
[23] = Specimen aa, Hours 1, Cummulative Hours 1
[24] = Specimen bb, Hours 1, Cummulative Hours 1
[25] = Specimen cc, Hours 3, Cummulative Hours 4
[26] = Specimen dd, Hours 3, Cummulative Hours 4
[27] = Specimen ee, Hours 18, Cummulative Hours 22
[28] = Specimen ff, Hours 18, Cummulative Hours 22
[29] = Specimen gg, Hours 18, Cummulative Hours 40
[30] = Specimen hh, Hours 18, Cummulative Hours 40
[31] = Specimen ii, Hours 18, Cummulative Hours 58
[32] = Specimen kk, Hours 18, Cummulative Hours 58
[33] = Sample aa, Test Disc 1, Exposed 1 hours
[34] = Sample bb, Test Disc 1 Replicate, Exposed 1 hours
[35] = Sample cc, Test Disc 2, Exposed 3 hours
[36] = Sample dd, Test Disc 2 Replicate, Exposed 3 hours
[37] = Sample ee, Test Disc 3, Exposed 18 hours
[38] = Sample ff, Test Disc 3 Replicate, Exposed 18 hours
[39] = Sample gg, Test Disc 4, Exposed 18 hours
[40] = Sample hh, Test Disc 4 Replicate, Exposed 18 hours
[41] = Sample ii, Test Disc 5, Exposed 18 hours
[42] = Sample kk, Test Disc 5 Replicate, Exposed 18 hours

Synthetic Menthol [S-Menthol]
Active Agent Transferred from Gel to Filters [1, 3]: 3578 μg per filter
Active Agent Transferred from Gel to Filters [1, 4]: 4193 μg per filter
Active Agent Transferred from Gel to Filters [1, 5]: 8952 μg per filter
Active Agent Transferred from Gel to Filters [1, 6]: 8566 μg per filter
Active Agent Transferred from Gel to Filters [1, 7]: 7193 μg per filter
Total Active Agent Exuded from Gel [1, 8]: 3578 µg
Total Active Agent Exuded from Gel [1, 9]: 7771 µg
Total Active Agent Exuded from Gel [1, 10]: 16723 µg
Total Active Agent Exuded from Gel [1, 11]: 25289 µg
Total Active Agent Exuded from Gel [1, 12]: 32482 µg
Active Agent Transferred from Gel to Filters [1, 13]: 4855 μg per filter
Active Agent Transferred from Gel to Filters [1, 14]: 5373 μg per filter
Active Agent Transferred from Gel to Filters [1, 15]: 8916 μg per filter
Active Agent Transferred from Gel to Filters [1, 16]: 7446 μg per filter
Active Agent Transferred from Gel to Filters [1, 17]: 7108 μg per filter
Total Active Agent Exuded from Gel [1, 18]: 4855 µg
Total Active Agent Exuded from Gel [1, 19]: 10229 µg
Total Active Agent Exuded from Gel [1, 20]: 19145 µg
Total Active Agent Exuded from Gel [1, 21]: 26590 µg
Total Active Agent Exuded from Gel [1, 22]: 33699 µg
Quantitative Analysis - Islechem u-gram extraction [1, 23]: 2970 u-gram
Quantitative Analysis - Islechem u-gram extraction [1, 24]: 4030 u-gram
Quantitative Analysis - Islechem u-gram extraction [1, 25]: 3480 u-gram
Quantitative Analysis - Islechem u-gram extraction [1, 26]: 4460 u-gram
Quantitative Analysis - Islechem u-gram extraction [1, 27]: 7430 u-gram
Quantitative Analysis - Islechem u-gram extraction [1, 28]: 7400 u-gram
Quantitative Analysis - Islechem u-gram extraction [1, 29]: 7110 u-gram
Quantitative Analysis - Islechem u-gram extraction [1, 30]: 6180 u-gram
Quantitative Analysis - Islechem u-gram extraction [1, 31]: 5970 u-gram
Quantitative Analysis - Islechem u-gram extraction [1, 32]: 5900 u-gram
Estimated grams of ingredient exuded (theoretical amount from ratios of ingredients in the gel disc formula) [2, 33]: 0.0022 grams
Estimated grams of ingredient exuded (theoretical amount from ratios of ingredients in the gel disc formula) [2, 34]: 0.0031 grams
Estimated grams of ingredient exuded (theoretical amount from ratios of ingredients in the gel disc formula) [2, 35]: 0.0024 grams
Estimated grams of ingredient exuded (theoretical amount from ratios of ingredients in the gel disc formula) [2, 36]: 0.0035 grams
Estimated grams of ingredient exuded (theoretical amount from ratios of ingredients in the gel disc formula) [2, 37]: 0.0062 grams
Estimated grams of ingredient exuded (theoretical amount from ratios of ingredients in the gel disc formula) [2, 38]: 0.0062 grams
Estimated grams of ingredient exuded (theoretical amount from ratios of ingredients in the gel disc formula) [2, 39]: 0.0064 grams
Estimated grams of ingredient exuded (theoretical amount from ratios of ingredients in the gel disc formula) [2, 40]: 0.0057 grams
Estimated grams of ingredient exuded (theoretical amount from ratios of ingredients in the gel disc formula) [2, 41]: 0.0051 grams
Estimated grams of ingredient exuded (theoretical amount from ratios of ingredients in the gel disc formula) [2, 42]: 0.0051 grams

O=c1c(O)c(-c2ccc(O)c(O)c2)oc2cc(O)cc(O)c12 [Quercetin]
Active Agent Transferred from Gel to Filters [1, 3]: 10 μg per filter
Active Agent Transferred from Gel to Filters [1, 4]: 11 μg per filter
Active Agent Transferred from Gel to Filters [1, 5]: 21 μg per filter
Active Agent Transferred from Gel to Filters [1, 6]: 31 μg per filter
Active Agent Transferred from Gel to Filters [1, 7]: 15 μg per filter
Total Active Agent Exuded from Gel [1, 8]: 10 µg
Total Active Agent Exuded from Gel [1, 9]: 21 µg
Total Active Agent Exuded from Gel [1, 10]: 42 µg
Total Active Agent Exuded from Gel [1, 11]: 72 µg
Total Active Agent Exuded from Gel [1, 12]: 87 µg
Active Agent Transferred from Gel to Filters [1, 13]: 12 μg per filter
Active Agent Transferred from Gel to Filters [1, 14]: 15 μg per filter
Active Agent Transferred from Gel to Filters [1, 15]: 30 μg per filter
Active Agent Transferred from Gel to Filters [1, 16]: 21 μg per filter
Active Agent Transferred from Gel to Filters [1, 17]: 16 μg per filter
Total Active Agent Exuded from Gel [1, 18]: 12 µg
Total Active Agent Exuded from Gel [1, 19]: 27 µg
Total Active Agent Exuded from Gel [1, 20]: 57 µg
Total Active Agent Exuded from Gel [1, 21]: 78 µg
Total Active Agent Exuded from Gel [1, 22]: 94 µg
Quantitative Analysis - Islechem u-gram extraction [1, 23]: 9 u-gram
Quantitative Analysis - Islechem u-gram extraction [1, 24]: 11 u-gram
Quantitative Analysis - Islechem u-gram extraction [1, 25]: 9.4 u-gram
Quantitative Analysis - Islechem u-gram extraction [1, 26]: 13.2 u-gram
Quantitative Analysis - Islechem u-gram extraction [1, 27]: 18.6 u-gram
Quantitative Analysis - Islechem u-gram extraction [1, 28]: 28.6 u-gram
Quantitative Analysis - Islechem u-gram extraction [1, 29]: 27.5 u-gram
Quantitative Analysis - Islechem u-gram extraction [1, 30]: 19 u-gram
Quantitative Analysis - Islechem u-gram extraction [1, 31]: 13.2 u-gram
Quantitative Analysis - Islechem u-gram extraction [1, 32]: 14.2 u-gram
Estimated grams of ingredient exuded (theoretical amount from ratios of ingredients in the gel disc formula) [2, 33]: 0.0009 grams
Estimated grams of ingredient exuded (theoretical amount from ratios of ingredients in the gel disc formula) [2, 34]: 0.0012 grams
Estimated grams of ingredient exuded (theoretical amount from ratios of ingredients in the gel disc formula) [2, 35]: 0.0009 grams
Estimated grams of ingredient exuded (theoretical amount from ratios of ingredients in the gel disc formula) [2, 36]: 0.0014 grams
Estimated grams of ingredient exuded (theoretical amount from ratios of ingredients in the gel disc formula) [2, 37]: 0.0024 grams
Estimated grams of ingredient exuded (theoretical amount from ratios of ingredients in the gel disc formula) [2, 38]: 0.0024 grams
Estimated grams of ingredient exuded (theoretical amount from ratios of ingredients in the gel disc formula) [2, 39]: 0.0025 grams
Estimated grams of ingredient exuded (theoretical amount from ratios of ingredients in the gel disc formula) [2, 40]: 0.0022 grams
Estimated grams of ingredient exuded (theoretical amount from ratios of ingredients in the gel disc formula) [2, 41]: 0.0020 grams
Estimated grams of ingredient exuded (theoretical amount from ratios of ingredients in the gel disc formula) [2, 42]: 0.0020 grams
